Results on 28 compounds are retold here after US9688675B2, “1,7-naphthyridine derivatives” (Hoffmann-La Roche Inc., priority 2013, dated 2017).

This experiment deals with human embryonic stem cell derived neural stem cells (NSCs). The experiment in a line: Neural Stem Cell Proliferation Assay (Neurogenesis Assay, ATP levels by CellTiterGlo). It is filed as cell-based. Conditions: 96 h, compound concentration at which 150% activity of control (100%) is reached, NSC proliferation, 4 days incubation. The procedure: Neural Stem Cell Proliferation Assay
Neurogenic properties of small molecules are determined based on the proliferation of human embryonic stem cell derived neural stem cells (NSCs) which were derived via a dual smad inhibition as previously described (Chambers, S. M., et al., Highly efficient neural conversion of human ES and iPS cells by dual inhibition of SMAD signaling, Nature biotechnology, 2009. 27(3): p. 275-80.)
Compounds respond is measured by the increase in cells based on ATP levels
(Promega:CellTiterGlo®) after an incubation period of 4 days.
NSCs are thawed and expanded over 3 passages. On the 14th day, NSCs are seeded in Polyornithin/Laminin coated 384 well plates at a cell density of 21′000 cells/cm^2 in a media volume of 38 μl.
4 hours after cell seeding, compound solutions are added at a volume of 2 μl. Stock solutions of the compounds (water, 5% DMSO) are diluted to obtain a dose response (11 points, dilution factor is 2), ranging from 8 μM to 8 nM. Controls are run to consistently determine the neurogenic properties of the cells:
Negative (neutral) control is cell culture Media (final DMSO concentration: 0.25%).
Positive controls are: • 1. cell culture Media+100 ng/ml FGF2 (final DMSO concentration: 0.1%) • 2. cell culture Media+20 ng/ml EGF (final DMSO concentration: 0.1%) • 3. cell culture Media+100 ng/ml Wnt3a (final DMSO concentration: 0.1%)
After 4 days incubation at 37° C., 5% CO2, the amount of ATP per well is quantified. The ATP concentration is proportional to the cell number. ATP is quantified by using the Promega CellTiterGlo® kit. The CellTiterGlo® reagents contain a cell lysis buffer, a thermo stable luciferase (UltraGlo™ recombinant luciferase), magnesium and luciferin. Luciferin reacts with ATP producing oxyluciferin, AMP and light. The luminescence signal is proportional to the ATP content.
The value of negative (neutral) control is determined for each assay plate by taking the average of 16 negative control wells. The neurogenic compound response is calculated for each compound as (compound/Negative Control)*100.
The values of EC150 from the dose response curve are determined for each test compound. The EC150 is the compound concentration at which 150% activity of control (100%) is reached.
(Cellular ATP, detected with luciferase, serves as a proxy for viable cell number.)
`NC(=O)c1cnc2cncc(-c3ccc(Cl)cc3)c2c1` [Example 1, 5-(4-Chlorophenyl)-1,7-naphthyridine-3-carboxamide] came in with an EC (150% of control) of 0.09 µM.

The compound `NC(=O)c1cnc2cncc(-c3ccc(OC(F)(F)F)cc3)c2c1` [Example 2, 5-(4-(Trifluoromethoxy)phenyl)-1,7-naphthyridine-3-carboxamide] gave an EC (150% of control) of 0.47 µM.

For `NC(=O)c1cnc2cncc(-c3ccccc3F)c2c1` [Example 3, 5-(2-Fluorophenyl)-1,7-naphthyridine-3-carboxamide], the EC (150% of control) turned out to be 1.12 µM.

Compound `NC(=O)c1cnc2cncc(-c3cc(F)c(F)c(F)c3)c2c1` [Example 4, 5-(3,4,5-Trifluorophenyl)-1,7-naphthyridine-3-carboxamide] displayed an EC (150% of control) of 1.9 µM.

`NC(=O)c1cnc2cncc(-c3ccc(F)cc3)c2c1` [Example 5, 5-(4-Fluorophenyl)-1,7-naphthyridine-3-carboxamide]: the EC (150% of control) worked out at 1.1 µM.

`NC(=O)c1cnc2cncc(-c3ccc(F)c(F)c3)c2c1` [Example 6, 5-(3,4-Difluorophenyl)-1,7-naphthyridine-3-carboxamide]: the EC (150% of control) amounted to 0.55 µM.

For `NC(=O)c1cnc2cncc(-c3ccc(F)cc3F)c2c1` [Example 7, 5-(2,4-Difluorophenyl)-1,7-naphthyridine-3-carboxamide], the EC (150% of control) worked out at 0.48 µM.

For `N#Cc1ccc(-c2cncc3ncc(C(N)=O)cc23)cc1` [Example 8, 5-(4-Cyanophenyl)-1,7-naphthyridine-3-carboxamide], the EC (150% of control) came to 1.37 µM.

`CS(=O)(=O)c1ccc(-c2cncc3ncc(C(N)=O)cc23)cc1` [Example 9, 5-(4-(Methylsulfonyl)phenyl)-1,7-naphthyridine-3-carboxamide] had an EC (150% of control) of 1.58 µM.

With `NC(=O)c1cnc2cncc(-c3ccc(C(F)(F)F)cc3)c2c1` [Example 10, 5-(4-(Trifluoromethyl)phenyl)-1,7-naphthyridine-3-carboxamide], the EC (150% of control) came out at 0.3 µM.

In turn, `Cc1nc2cncc(-c3ccc(Cl)cc3)c2cc1C(N)=O` [Example 11, 5-(4-Chlorophenyl)-2-methyl-1,7-naphthyridine-3-carboxamide] yielded an EC (150% of control) of 0.12 µM.

In turn, `NC(=O)c1cnc2cncc(-c3ccc(Cl)cc3F)c2c1` [Example 12, 5-(4-Chloro-2-fluorophenyl)-1,7-naphthyridine-3-carboxamide] had an EC (150% of control) of 0.07 µM.

Compound `CS(=O)(=O)CCNC(=O)c1cnc2cncc(-c3ccc(Cl)cc3F)c2c1` [Example 13, 5-(4-Chloro-2-fluorophenyl)-N-(2-(methylsulfonyl)ethyl)-1,7-naphthyridine-3-carboxamide] returned an EC (150% of control) of 1.51 µM.

`O=C(NCC(F)(F)F)c1cnc2cncc(-c3ccccc3F)c2c1` [Example 14, 5-(2-Fluorophenyl)-N-(2,2,2-trifluoroethyl)-1,7-naphthyridine-3-carboxamide]: the EC (150% of control) was 1.21 µM.

For `O=C(NCC(F)(F)F)c1cnc2cncc(-c3ccc(F)cc3F)c2c1` [Example 15, 5-(2,4-Difluorophenyl)-N-(2,2,2-trifluoroethyl)-1,7-naphthyridine-3-carboxamide], the EC (150% of control) is 1.36 µM.

On to `NC(=O)c1cnc2cncc(N3CCOCC3)c2c1` [Example 16, 5-Morpholino-1,7-naphthyridine-3-carboxamide], for which the EC (150% of control) came to 1.43 µM.

For `O=C(NCC(F)(F)F)c1cnc2cncc(-c3ccc(F)cc3)c2c1` [Example 17, 5-(4-Fluorophenyl)-N-(2,2,2-trifluoroethyl)-1,7-naphthyridine-3-carboxamide], the EC (150% of control) was determined as 1.13 µM.

`CS(=O)(=O)c1ccc(CNC(=O)c2cnc3cncc(-c4ccc(Cl)cc4)c3c2)cc1` [Example 18, 5-(4-Chlorophenyl)-N-(4-(methylsulfonyl)benzyl)-1,7-naphthyridine-3-carboxamide] showed an EC (150% of control) of 0.25 µM.

As to `CS(=O)(=O)c1cccc(CNC(=O)c2cnc3cncc(-c4ccc(Cl)cc4)c3c2)c1` [Example 19, 5-(4-Chlorophenyl)-N-(3-(methylsulfonyl)benzyl)-1,7-naphthyridine-3-carboxamide], the EC (150% of control) is 3.18 µM.

Take `O=C(NCC1CC1)c1cnc2cncc(-c3ccc(Cl)cc3)c2c1` [Example 20, 5-(4-Chlorophenyl)-N-(cyclopropylmethyl)-1,7-naphthyridine-3-carboxamide]: the EC (150% of control) came to 4.24 µM.

As for `COCCNC(=O)c1cnc2cncc(-c3ccc(Cl)cc3)c2c1` [Example 21, 5-(4-Chlorophenyl)-N-(2-methoxyethyl)-1,7-naphthyridine-3-carboxamide], the EC (150% of control) came to 4.6 µM.

For the compound `COc1cccc(-c2cncc3ncc(C(N)=O)cc23)c1` [Example 22, 5-(3-Methoxyphenyl)-1,7-naphthyridine-3-carboxamide], the EC (150% of control) was 1.93 µM.

Compound `NC(=O)c1cnc2cncc(-c3cccc(OC(F)(F)F)c3)c2c1` [Example 23, 5-(3-(Trifluoromethoxy)phenyl)-1,7-naphthyridine-3-carboxamide] displayed an EC (150% of control) of 5.73 µM.

Regarding `COC(=O)c1cncc2ncc(C(N)=O)cc12` [Example 24, Methyl 3-carbamoyl-1,7-naphthyridine-5-carboxylate], the EC (150% of control) turned out to be 3.2 µM.

The compound `NC(=O)c1cnc2cncc(C3=CCOCC3)c2c1` [Example 25, 5-(3,6-Dihydro-2H-pyran-4-yl)-1,7-naphthyridine-3-carboxamide] showed an EC (150% of control) of 4.41 µM.

With `NC(=O)c1cnc2cncc(N3CCC(F)(F)CC3)c2c1` [Example 26, 5-(4,4-Difluoropiperidin-1-yl)-1,7-naphthyridine-3-carboxamide], the EC (150% of control) is 2.09 µM.

For the compound `NC(=O)c1cnc2cncc(-c3ccc(Cl)nc3)c2c1` [Example 27, 5-(6-Chloropyridin-3-yl)-1,7-naphthyridine-3-carboxamide], the EC (150% of control) turned out to be 1.08 µM.

For the compound `NC(=O)c1cnc2cncc(-c3ccc(Cl)cc3Cl)c2c1` [Example 28, 5-(2,4-Dichlorophenyl)-1,7-naphthyridine-3-carboxamide], the EC (150% of control) was 0.46 µM.
